The supplement of paper PMC10307832

Columns and labels:
Assay in all cases: relative viability (nuclei count vs DMSO), 5 days (fraction); higher = more cells survive
[1] = system: A-427
Procedure, shortened: (§1)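 One day after seeding in 1536-well plates, lung cancer cell lines were dosed by pin tool. Dosing was either single-drug or a fixed anchor-drug dose plus five library-drug doses (not always all listed) in √10 steps. After 5 days, nuclei were stained in one fix-and-stain step and counted on 4× images, and relative viability is the nuclei count of treated wells over that of vehicle wells, given as the median of duplicate plates.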

[2] = system: ChaGo-K-1
Procedure, shortened: as §1

[3] = system: EKVX
Procedure, shortened: as §1

[4] = system: EMC-BAC-2
Procedure, shortened: as §1

[5] = system: H3255
Procedure, shortened: as §1

[6] = system: HCC-366
Procedure, shortened: as §1

[7] = system: LK-2
Procedure, shortened: as §1

[8] = system: LOU-NH91
Procedure, shortened: as §1

[9] = system: NCI-H1666
Procedure, shortened: as §1

[10] = system: NCI-H1734
Procedure, shortened: as §1

[11] = system: NCI-H1755
Procedure, shortened: as §1

[12] = system: NCI-H1975
Procedure, shortened: as §1

[13] = system: NCI-H2170
Procedure, shortened: as §1

[14] = system: NCI-H23
Procedure, shortened: as §1

[15] = system: NCI-H441
Procedure, shortened: as §1

[16] = system: NCI-H596
Procedure, shortened: as §1

[17] = system: PC-3 [JPC-3]
Procedure, shortened: as §1

[18] = system: SW 900
Procedure, shortened: as §1

SMILES: Nc1ccn([C@@H]2O[C@H](CO)[C@@H](O)[C@@H]2O)c(=O)n1 [Cytarabine] + NC(=O)Nc1cc(-c2cccc(F)c2)sc1C(=O)N[C@H]1CCCNC1 [AZD7762] (partner 0.2 µM)
- relative viability ([1]; first compound 0.005 µM): 0.343
- relative viability ([1]; first compound 0.01581 µM): 0.246
- relative viability ([1]; first compound 0.05 µM): 0.218
- relative viability ([1]; first compound 0.1581 µM): 0.184
- relative viability ([1]; first compound 0.5 µM): 0.184
- relative viability ([2]; first compound 0.005 µM): 0.877
- relative viability ([2]; first compound 0.01581 µM): 0.643
- relative viability ([2]; first compound 0.05 µM): 0.439
- relative viability ([2]; first compound 0.1581 µM): 0.249
- relative viability ([2]; first compound 0.5 µM): 0.199
- relative viability ([3]; first compound 0.005 µM): 0.697
- relative viability ([3]; first compound 0.01581 µM): 0.676
- relative viability ([3]; first compound 0.05 µM): 0.329
- relative viability ([3]; first compound 0.5 µM): 0.67
- relative viability ([4]; first compound 0.005 µM): 1.09
- relative viability ([4]; first compound 0.01581 µM): 0.97
- relative viability ([4]; first compound 0.05 µM): 0.674
- relative viability ([4]; first compound 0.1581 µM): 0.344
- relative viability ([4]; first compound 0.5 µM): 0.308
- relative viability ([5]; first compound 0.005 µM): 0.945
- relative viability ([5]; first compound 0.01581 µM): 0.812
- relative viability ([5]; first compound 0.05 µM): 0.764
- relative viability ([5]; first compound 0.1581 µM): 0.583
- relative viability ([5]; first compound 0.5 µM): 0.551
- relative viability ([6]; first compound 0.005 µM): 0.139
- relative viability ([6]; first compound 0.01581 µM): 0.0915
- relative viability ([6]; first compound 0.05 µM): 0.107
- relative viability ([6]; first compound 0.1581 µM): 0.0525
- relative viability ([6]; first compound 0.5 µM): 0.038
- relative viability ([7]; first compound 0.005 µM): 0.3
- relative viability ([7]; first compound 0.01581 µM): 0.13
- relative viability ([7]; first compound 0.05 µM): 0.0997
- relative viability ([7]; first compound 0.1581 µM): 0.0979
- relative viability ([7]; first compound 0.5 µM): 0.12
- relative viability ([8]; first compound 0.005 µM): 0.645
- relative viability ([8]; first compound 0.01581 µM): 0.803
- relative viability ([8]; first compound 0.05 µM): 0.708
- relative viability ([8]; first compound 0.1581 µM): 0.548
- relative viability ([8]; first compound 0.5 µM): 0.252
- relative viability ([9]; first compound 0.005 µM): 0.943
- relative viability ([9]; first compound 0.01581 µM): 0.768
- relative viability ([9]; first compound 0.05 µM): 0.666
- relative viability ([9]; first compound 0.1581 µM): 0.444
- relative viability ([9]; first compound 0.5 µM): 0.413
- relative viability ([10]; first compound 0.005 µM): 0.258
- relative viability ([10]; first compound 0.01581 µM): 0.172
- relative viability ([10]; first compound 0.05 µM): 0.159
- relative viability ([10]; first compound 0.1581 µM): 0.0997
- relative viability ([10]; first compound 0.5 µM): 0.102
- relative viability ([11]; first compound 0.005 µM): 0.501
- relative viability ([11]; first compound 0.01581 µM): 0.314
- relative viability ([11]; first compound 0.05 µM): 0.334
- relative viability ([11]; first compound 0.1581 µM): 0.372
- relative viability ([11]; first compound 0.5 µM): 0.298
- relative viability ([12]; first compound 0.005 µM): 0.679
- relative viability ([12]; first compound 0.01581 µM): 0.581
- relative viability ([12]; first compound 0.05 µM): 0.388
- relative viability ([12]; first compound 0.1581 µM): 0.321
- relative viability ([12]; first compound 0.5 µM): 0.234
- relative viability ([13]; first compound 0.005 µM): 0.666
- relative viability ([13]; first compound 0.01581 µM): 0.515
- relative viability ([13]; first compound 0.05 µM): 0.347
- relative viability ([13]; first compound 0.1581 µM): 0.173
- relative viability ([13]; first compound 0.5 µM): 0.136
- relative viability ([14]; first compound 0.005 µM): 0.227
- relative viability ([14]; first compound 0.01581 µM): 0.171
- relative viability ([14]; first compound 0.05 µM): 0.202
- relative viability ([14]; first compound 0.1581 µM): 0.126
- relative viability ([14]; first compound 0.5 µM): 0.134
- relative viability ([15]; first compound 0.005 µM): 0.982
- relative viability ([15]; first compound 0.01581 µM): 0.912
- relative viability ([15]; first compound 0.05 µM): 0.814
- relative viability ([15]; first compound 0.1581 µM): 0.306
- relative viability ([15]; first compound 0.5 µM): 0.211
- relative viability ([16]; first compound 0.005 µM): 1
- relative viability ([16]; first compound 0.01581 µM): 1.01
- relative viability ([16]; first compound 0.05 µM): 0.787
- relative viability ([16]; first compound 0.1581 µM): 0.419
- relative viability ([16]; first compound 0.5 µM): 0.343
- relative viability ([17]; first compound 0.005 µM): 0.746
- relative viability ([17]; first compound 0.01581 µM): 0.809
- relative viability ([17]; first compound 0.05 µM): 0.676
- relative viability ([17]; first compound 0.1581 µM): 0.395
- relative viability ([17]; first compound 0.5 µM): 0.425
- relative viability ([18]; first compound 0.005 µM): 0.741
- relative viability ([18]; first compound 0.01581 µM): 0.546
- relative viability ([18]; first compound 0.05 µM): 0.451
- relative viability ([18]; first compound 0.1581 µM): 0.191
- relative viability ([18]; first compound 0.5 µM): 0.16
